Data reported in article PMC314469, “Protein Interaction Networks by Proteome Peptide Scanning” (PLoS Biology, 2004).

System: Myo5 SH3 domain
Assay: SPOT analysis of cellulose-bound peptides (WISE), Myo5 SH3 domain (Dataset S4)
Assay type: binding, Saccharomyces cerevisiae
Conditions: for The normalized value in BLU units: Myo5 SH3 domain
[1] = SPOT analysis of membrane-bound peptides, normalized value (see methods)
[2] = SPOT analysis of cellulose-bound peptides probed with Myo5 SH3 domain, normalized value
[3] = SPOT analysis of cellulose-bound 14-mer yeast proteome peptides, normalized value, mean where the peptide was synthesized more than once
[4] = SPOT analysis of membrane-synthesized peptides probed with Myo5 SH3 domain, normalized value

## NSFSKNDPNFPILK
[1]
  The normalized value in BLU units: 160.5 BLU

## HFNDLQSPAQPQQS
[2]
  The normalized value in BLU units (SPOT analysis, Myo5 SH3): 92.5 BLU

## YLLELPDPLIPNDV
[2]
  The normalized value in BLU units (SPOT analysis, Myo5 SH3): 162.7 BLU

## FESFLRPPSTPDLP
[3]
  The normalized value in BLU units: 70.2 BLU

## YFKELPPPSDPSSI
[3]
  The normalized value in BLU units: 164.8 BLU

## TQPVRKNPEAPARR
[1]
  The normalized value in BLU units: 232.1 BLU

## YAVDKIMPPTPAKK
[1]
  The normalized value in BLU units: 109.8 BLU

## SLTLKTLPRVPTDS
[4]
  The normalized value in BLU units (SPOT analysis, Myo5 SH3): 211.7 BLU

## DIKTRSVPKIPSIE
[1]
  The normalized value in BLU units: 102.3 BLU

## AVGGKWEPGNPIAI
[4]
  The normalized value in BLU units (SPOT analysis, Myo5 SH3): 78.4 BLU

## NFLKHYLPSSPGDI
[2]
  The normalized value in BLU units (SPOT analysis, Myo5 SH3): 172.3 BLU

## HAEAFEDPSIPRIS
[3]
  The normalized value in BLU units: 324.6 BLU

## PRSKKKKPAPPTLL
[1]
  The normalized value in BLU units: 412.9 BLU

## SLIPKIEPAEPTYS
[1]
  The normalized value in BLU units: 85.4 BLU

## SPFTFLFPFLPTII
[2]
  The normalized value in BLU units (SPOT analysis, Myo5 SH3): 366.0 BLU

## TSSSRRGPGRPRKD
[4]
  The normalized value in BLU units (SPOT analysis, Myo5 SH3): 619.5 BLU

## QLQEKLSPDLPDEE
[1]
  The normalized value in BLU units: 216.1 BLU

## LIWHKNKPTEPDNK
[4]
  The normalized value in BLU units (SPOT analysis, Myo5 SH3): 155.4 BLU

## VVPERVKPAPPVSR
[1]
  The normalized value in BLU units: 149.8 BLU

## KFTDMQVPKGPVCP
[2]
  The normalized value in BLU units (SPOT analysis, Myo5 SH3): 197.0 BLU

## KRNSKHAPFIPVKP
[1]
  The normalized value in BLU units: 381.6 BLU

## PDLNKRPPREPIEF
[4]
  The normalized value in BLU units (SPOT analysis, Myo5 SH3): 192.4 BLU

## ETSLRVLPIAPKIF
[3]
  The normalized value in BLU units: 548.0 BLU

## PPPPRRGPAPPPPP
[1]
  The normalized value in BLU units: 15026.4 BLU

## VDSFKYEPLAPGND
[1]
  The normalized value in BLU units: 134.0 BLU

## WFDLKGLPRQPEPL
[4]
  The normalized value in BLU units (SPOT analysis, Myo5 SH3): 101.7 BLU

## MQSKKEDPNRPKNL
[1]
  The normalized value in BLU units: 153.6 BLU

## YYYYKHYPNMPPIN
[4]
  The normalized value in BLU units (SPOT analysis, Myo5 SH3): 287.9 BLU

## LLISHLFPTNPEFS
[2]
  The normalized value in BLU units (SPOT analysis, Myo5 SH3): 413.9 BLU

## SWAVLPVPGGPVMY
[3]
  The normalized value in BLU units: 69.2 BLU

## PPLPRAPPVPPATF
[4]
  The normalized value in BLU units (SPOT analysis, Myo5 SH3): 35914.7 BLU

## FEESMNNPLPPLPP
[3]
  The normalized value in BLU units: 168.9 BLU

## IAECLGVPWEPVDL
[2]
  The normalized value in BLU units (SPOT analysis, Myo5 SH3): 142.9 BLU

## GYNPKTVPFVPISG
[1]
  The normalized value in BLU units: 108.5 BLU

## SERRKALPKEPKKL
[4]
  The normalized value in BLU units (SPOT analysis, Myo5 SH3): 200.0 BLU

## NPGSMSMPGVPTSM
[2]
  The normalized value in BLU units (SPOT analysis, Myo5 SH3): 189.7 BLU

## GFQDRSLPHFPKNS
[1]
  The normalized value in BLU units: 178.5 BLU

## STNAKKDPFPPPKD
[4]
  The normalized value in BLU units (SPOT analysis, Myo5 SH3): 198.5 BLU

## LPAVFSAPIRPDIV
[3]
  The normalized value in BLU units: 201.8 BLU

## TPQSRFPPYSPLLP
[1]
  The normalized value in BLU units: 442.7 BLU

## PLNQLPNPAMPLLH
[2]
  The normalized value in BLU units (SPOT analysis, Myo5 SH3): 104.2 BLU

## FWKIHLSPPLPSFK
[2]
  The normalized value in BLU units (SPOT analysis, Myo5 SH3): 965.5 BLU

## KKIIKDVPGTPSDK
[1]
  The normalized value in BLU units: 162.7 BLU

## PSHYRNIPYNPATF
[1]
  The normalized value in BLU units: 174.8 BLU

## HEYNLALPKFPILF
[3]
  The normalized value in BLU units: 146.8 BLU

## ILQELSLPSRPVMP
[2]
  The normalized value in BLU units (SPOT analysis, Myo5 SH3): 51.9 BLU

## TGYPRYFPQPPVQR
[1]
  The normalized value in BLU units: 5858.1 BLU

## RLVSKYRPNCPIIL
[1]
  The normalized value in BLU units: 286.2 BLU

## TSISRISPQDPEAK
[4]
  The normalized value in BLU units (SPOT analysis, Myo5 SH3): 194.2 BLU

## LDPGKNTPGLPEET
[4]
  The normalized value in BLU units (SPOT analysis, Myo5 SH3): 155.6 BLU

## KSYRKADPTNPQGW
[3]
  The normalized value in BLU units: 103.0 BLU

## ISADKGFPLIPSGY
[4]
  The normalized value in BLU units (SPOT analysis, Myo5 SH3): 113.3 BLU

## HRLFKCTPGLPKLW
[1]
  The normalized value in BLU units: 266.0 BLU

## INGEKACPFLPSSL
[4]
  The normalized value in BLU units (SPOT analysis, Myo5 SH3): 183.7 BLU

## IATMYPIPAYPDLL
[2]
  The normalized value in BLU units (SPOT analysis, Myo5 SH3): 96.9 BLU

## VQIKRADPHFPHDE
[1]
  The normalized value in BLU units: 132.0 BLU

## GTTNRGPPPLPPRA
[4]
  The normalized value in BLU units (SPOT analysis, Myo5 SH3): 39858.8 BLU

## GLRWYRSPIYPYLY
[2]
  The normalized value in BLU units (SPOT analysis, Myo5 SH3): 468.1 BLU

## YVKERRPPPPPPLL
[1]
  The normalized value in BLU units: 15869.6 BLU

## QHKPKVKPSKPEAK
[4]
  The normalized value in BLU units (SPOT analysis, Myo5 SH3): 956.3 BLU
